Laboratory results from paper PMC3472760, “New 14-Membered Cyclopeptide Alkaloids from Zizyphus oxyphylla Edgew” (International Journal of Molecular Sciences, 2012).

Columns and labels:
[1] = system: Escherchia coli (ATCC 25922); assay: Antibacterial MIC, microplate dilution with tetrazolium violet; format: cell-based, Escherichia coli; details: compounds in DMSO serially diluted with sterile water in microplates, overnight, 37 °C, 100% relative humidity, tetrazolium violet read-out, lowest concentration inhibiting growth
Description: (§1) All compounds were screened for antibacterial activity against Escherchia coli (ATCC 25922), Bacillus subtilis (ATCC 6633), Shigella flexeneri (clinical isolate), Staphylococcus aureus (ATCC 25923), Pseudomonas aeruginosa (ATCC 27853), and Salmonella typhi (ATCC 19430), according to the method as reported previously. The disc diffusion technique was used to determine the antibacterial activity of the test compounds. The compounds were dissolved in DMSO to obtain a 10 mg/mL solution. A known volume ([…]) of the solution was applied on to the sterilized filter paper discs with the help of a micropipette. The discs were dried at room temperature overnight and stored in sterile dry containers. Discs, soaked with […] of DMSO, and air dried at room temperature, were used as negative control. Bacterial cultures were grown in a nutrient broth medium at 37 °C overnight and spread on to solidified nutrient agar medium in Petri plates using sterilized cotton swabs in a standard microbiological working environment. Test and control discs were then applied to the solidified medium surface with the help of sterilized forceps. The plates were incubated at 37 °C for 12–15 h. The results were recorded by measuring the zone of inhibition in mm against each compound. Impenem was used as standard drug. MIC was calculated as previously reported. Compounds were briefly dissolved in DMSO and serially diluted with sterile water in microplates in a laminar flow cabinet. The same volume of an actively rowing culture of the test bacteria was added to the different wells and cultures were grown overnight in 100% relative humidity at 37 °C. The next morning, tetrazolium violet was added to all the wells. Growth was indicated by a violet color of the culture. The lowest concentration of the test solution that led to an inhibition of growth was taken as the MIC. The negative control DMSO had no influence on the growth at the highest concentration used. Impenem was used as controls for comparison (See Table 1).

[2] = system: Bacillus subtilis (ATCC 6633); assay: as above; format: cell-based; details: compounds in DMSO serially diluted with sterile water in microplates, overnight, 37 °C, 100% relative humidity, tetrazolium violet read-out
Description: as §1

[3] = system: Pseudomonas aeruginosa (ATCC 27853); assay: as above; format: cell-based; details: compounds in DMSO serially diluted with sterile water in microplates, overnight, 37 °C, 100% relative humidity, tetrazolium violet read-out
Description: as §1

[4] = system: Salmonella typhi (ATCC 19430); assay: as above; format: cell-based; details: compounds in DMSO serially diluted with sterile water in microplates, overnight, 37 °C, 100% relative humidity, tetrazolium violet read-out
Description: as §1

[5] = system: Shigella flexeneri (clinical isolate); assay: as above; format: cell-based; details: compounds in DMSO serially diluted with sterile water in microplates, overnight, 37 °C, 100% relative humidity, tetrazolium violet read-out
Description: as §1

[6] = system: Staphylococcus aureus (ATCC 25923); assay: as above; format: cell-based; details: compounds in DMSO serially diluted with sterile water in microplates, overnight, 37 °C, 100% relative humidity, tetrazolium violet read-out
Description: as §1

[7] = system: tested bacterial pathogens; assay: Antibacterial activity, overall verdict over the panel; format: cell-based; details: verdict over the six tested bacterial pathogens of Table 2
Description: as §1

Compound | Minimum Inhibitory Concentration (MIC), Escherichia coli [1] [µg/mL] | Minimum Inhibitory Concentration (MIC), Bacillus subtilis [2] [µg/mL] | Minimum Inhibitory Concentration (MIC), Pseudomonas aeruginosa [3] [µg/mL] | Minimum Inhibitory Concentration (MIC), Salmonella typhi [4] [µg/mL] | Minimum Inhibitory Concentration (MIC), Shigella flexeneri [5] [µg/mL] | Minimum Inhibitory Concentration (MIC), Staphylococcus aureus [6] [µg/mL] | Antibacterial activity (in words) [7] | Minimum Inhibitory Concentration (MIC), Salmonella typhi ([4]; listed as Oxyphylline B (4)) [µg/mL]
CCC(C)C1NC(=O)C2C(CCN2C(=O)C(Cc2c[nH]c3ccccc23)N(C)C)Oc2ccc(OC)c(c2)/C=C/NC1=O (stereo not drawn) [Compound 3, nummularin-R] | 25 | 10 | 100 | 50 | 100 | 50 | low antibacterial activities | 
C[C@@H](O)[C@H]1C(=O)N2C(C(=O)O)=C(SCCN=CN)C[C@H]12 [Standard, Impenem, reference compound] | 0.0002 | 0.0005 | 0.0021 | 0.0014 | 0.0003 | 0.0009 |  | 
Oxyphylline B [Compound 4] | 5 |  | 50 |  | 25 | 25 |  | 50
Oxyphylline C [Compound 5] | 10 | 50 | 50 | 50 | 50 | 10 | low antibacterial activities | 
Oxyphylline D [Compound 1] | 10 | 25 | 50 | 25 | 50 | 25 | low antibacterial activities | 
nummularin-C [Compound 2] | 10 | 25 | 100 | 10 | 100 | 25 | low antibacterial activities | 
